Tests used:
[1] = system: BRD4-MED1 association in SUM159R cells; experiment: BRD4 immunoprecipitation followed by immunoblot for MED1, resistant cells; format: cell-based, human; conditions: SUM159R, 3 hrs treatment
Protocol: Cells were lysed five days after transfection with siRNAs in RIPA buffer. Proteins were resolved in SDS-polyacrylamide gels (4%-12%) and transferred to PVDF membranes by using a Tris-glycine buffer system. […] Cells were incubated on ice for 15 min and gently vortexed every 5 min. […] After centrifugation of the lysates at 14 g for 10 min at 4° C., supernatant was diluted with 0.6 ml buffer A, and added NP-40 to final 0.5% and treated with DNase I. The samples were then incubated at 4° C. overnight with BRD4 or Flag antibodies at 1:100 dilution and immunoprecipitates were collected on Dynabeads Protein G for 2 hr. Beads were washed with buffer B containing 150 mM NaCl and 0.5% NP-40 three times and then resuspended in gel loading buffer. Immunoblotting and immunoprecipitation experiments were repeated 2-3 times.

[2] = system: phospho-BRD4 (pBRD4); experiment: Immunoblot analysis of phospho-BRD4; format: cell-based, human; conditions: SUM159R, SUM149R, and other cell lines; short-term treatment
Excerpt: Immunoblotting and immunoprecipitation experiments were repeated 2-3 times.

[3] = system: SUM149, SUM149R, SUM159, and SUM159R cells; experiment: Synergy studies (ATPlite, combination indices, isobolograms); format: cell-based, human
Protocol: SUM149, SUM149R, SUM159, and SUM159R cells were seeded in sterile, white, opaque 384-well microtiter plates (Thermo), using an automated dispensing system (BioTek EL406), at 1,000 cells per well in 50 μl of media. Drugs were delivered in DMSO by robotic pin transfer with a JANUS workstation (100 nl) to achieve a matrix of pairwise dose-response incubations of each compound, each pair having eight replicates. Following 72 hours of incubation, ATP levels were determined for treated cells and vehicle controls (ATPlite, PerkinElmer). Data were normalized to vehicle controls. Combination indices were determined using the median-effect principle of Chou and Talalay^49 (CalcuSyn Software). Isobologram plots were generated with GraphPad Prism software. Points represent paired values of drug concentrations assessed for synergism. The diagonal line signifies drug additivity. Points above the line represent antagonistic drug combinations, and those below the line represent synergistic drug combinations. Synergy assays were performed in triplicates and repeated 2-3 times.

[4] = system: xenografts derived from SUM159R cells; experiment: Xenograft assay, SUM159R (BBI-resistant SUM159); format: in vivo, mice; conditions: administered along with JQ1
Protocol: (§1) For xenograft assays 5-6-weeks old female CrTac:NCr-Foxn1^nu and NOD.Cg-Prkdc^scid Il2rg^tm1Sug/JicTac mice were purchased from Taconic. Tumors were induced by bilateral orthotopic mammary fat pad injection of 1×10^6 cells in 50% Matrigel (BD Biosciences) in DMEM/F12 or Medium 171 (except for IDC50-X cells, which were injected with 3% FBS and 4 mg/ml collagen gel in Medium 171). Animal experiments were conducted following protocol 11-023 approved by the Dana-Farber Cancer Institute Animal Care and Use Committee.

[5] = system: tumors derived from BBI-resistant SUM149 cells; experiment: Xenograft assay, BBI-resistant SUM149; format: in vivo, mice; conditions: administered along with JQ1
Protocol: as §1

[6] = system: MDR (multi drug resistance) pumps in SUM159 and SUM159R cells; experiment: Multi-Drug Resistance (MDR) assay; format: cell-based, human; conditions: with JQ1
Protocol: Cell viability and growth assays (FIGS. 1A-1B, FIGS. 3A-3E, 3G, FIGS. 5D-5F, FIGS. 6C, 6E, 6I, FIG. 7A, FIG. 10D, FIGS. 14A-14C), cycle, apoptosis, and MDR assays were performed in triplicates and repeated 2-3 times. For cell proliferation assays, cells were plated at 500 cells per well in 96-well plates and treated the next day with inhibitors, DMSO or doxycycline (500 ng). Cells were cultured at 37° C. with 5% CO2 in the media described-above, and cell viability was measured using CellTiter-Glo three days after treatments. For cell growth assays, cells were plated at 5000 (SUM159) or 20000 (SUM149) cells per well in 6-well plates and treated the next day with inhibitors. Cells were counted every three days by cell counter. Cellular apoptosis was analyzed with an APC AnnexinV/7ADD Apoptosis Detection kit (BD Pharmingen). AnnexinV/7AAD assessments and cell cycle graphics were generated using FlowJo software V7.6.1 for Windows (Tree Star). Senescence Beta-gal staining was performed using Senescence β-Galactosidase staining kit from Cell signaling. Briefly, after JQ1 treatment (500 nM) for 72 h, SUM159 and MDA-MB-231 cells were fixed by Fixative Solution for 15 min, followed by β-Galactosidase solution incubation overnight at 37° C. The staining was checked under microscope for the development of blue color. […]

[7] = summary statement, resistant cells

SMILES | Synergy with JQ1 [3, 7] | Synergy with JQ1 ([3]; synergy screens, 72 hours) | Tumor weight [4] | Tumor weight [5] | also measured
c1ccc2c(c1)Nc1ccccc1S2 [phenothiazine] |  |  |  |  | MED1 abundance in BRD4 immunoprecipitation [1]: decreased MED1 abundance; pBRD4 levels [2]: rapid dephosphorylation of BRD4
OCCN1CCN(CCCN2c3ccccc3Sc3ccc(Cl)cc32)CC1 [perphenazine] | substantial synergy | Significant synergy |  |  | 
CN(C)CC[C@H](CSc1ccccc1)Nc1ccc(S(=O)(=O)NC(=O)c2ccc(N3CCN(Cc4ccccc4-c4ccc(Cl)cc4)CC3)cc2)cc1[N+](=O)[O-] [ABT737, 4-[4-[[2-(4-chlorophenyl)phenyl]methyl]piperazin-1-yl]-N-[4-[[(2R)-4-(dimethylamino)-1-phenylsulfanylbutan-2-yl]amino]-3-nitrophenyl] sulfonylbenzamide] | substantial synergy | Significant synergy |  |  | 
N#CC[C@H](C1CCCC1)n1cc(-c2ncnc3[nH]ccc23)cn1 [INC424] |  |  | reduced tumor weight to a greater extent than the corresponding single therapy and JQ1 alone | reduced tumor weight to a greater extent than the corresponding single therapy and JQ1 alone | 
CC1(C)CCC(CN2CCN(c3ccc(C(=O)NS(=O)(=O)c4ccc(NCC5CCOCC5)c([N+](=O)[O-])c4)c(Oc4cnc5[nH]ccc5c4)c3)CC2)=C(c2ccc(Cl)cc2)C1 [ABT 199, 4-[4-[[2-(4-chlorophenyl)-4,4-dimethylcyclohexen-1-yl]methyl]piperazin-1-yl]-N-[3-nitro-4-(oxan-4-ylmethylamino)phenyl]sulfonyl-2-(1H-pyrrolo[2,3-b]pyridin-5-yloxy)benzamide] | substantial synergy |  | reduced tumor weight to a greater extent than the corresponding single therapy and JQ1 alone | reduced tumor weight to a greater extent than the corresponding single therapy and JQ1 alone | 
COc1ccc(CCN(C)CCCC(C#N)(c2ccc(OC)c(OC)c2)C(C)C)cc1OC (centres unmarked) [verapamil] |  |  |  |  | Effect of co-incubation with MDR1 inhibitor on BBI-resistance [6]: had no effect
CC1(C)CCC(c2ccc(Cl)cc2)=C(CN2CCN(c3ccc(C(=O)NS(=O)(=O)c4ccc(N[C@H](CCN5CCOCC5)CSc5ccccc5)c(S(=O)(=O)C(F)(F)F)c4)cc3)CC2)C1 [ABT 263, 4-[4-[[2-(4-chlorophenyl)-5,5-dimethylcyclohexen-1-yl]methyl]piperazin-1-yl]-N-[4-[[(2R)-4-morpholin-4-yl-1-phenylsulfanylbutan-2-yl]amino]-3-(trifluoromethylsulfonyl)phenyl]sulfonylbenzamide] | substantial synergy |  | reduced tumor weight to a greater extent than the corresponding single therapy and JQ1 alone | reduced tumor weight to a greater extent than the corresponding single therapy and JQ1 alone | 
O=C(O)c1ccc2c(c1)nc(Nc1cccc(Cl)c1)c1ccncc12 [CX-4945, 5-(3-chloroanilino)benzo[c][2,6]naphthyridine-8-carboxylic acid] | substantial synergy | Significant synergy |  |  | 
